Values joined by “and” are separate entries in the source; they are usually repeats but may differ in a detail not shown here. Identical values can stand only once. Where a SMILES comes first, the peptide text is derived from it. [ ]: non-standard residue; d: D form. The star is where a group is joined. X1 = O=C(O)CC[C@H](NC(=O)N[C@@H](CCCCNC(=O)CCCCCCC(=O)*)C(=O)O)C(=O)O; d2Nal = N[C@H](Cc1ccc2ccccc2c1)C(=O)O; Mercaptoacetyl = O=C(CS)*
Key:
[1] = test system: orthotopically transplanted PC346C cells; experiment: In vivo SPECT imaging in tumour-bearing mice; details: tumour-bearing nude BALB/c mice, FIG. 4A
Experimental: (§1) A) In vivo SPECT imaging. Coronal SPECT imaging image of prostate tumour-bearing mice injected with either one of the PSMA hybrid tracer analogues. Organs are denoted as Lu (lungs), Li (liver), G (gallbladder), S (spleen), K (kidneys), B (bladder) and T (tumour). B) Comparison of biodistribution of the hybrid tracer matrix compared to the clinically approved tracer PSMA I&S, with C) providing the biodistribution of hybrid tracer EUK(SO3)—CY5-MAS3. Biodistribution pattern at 2 h post injection of the different hybrid tracers from the matrix compared to the reference tracer PSMA I&S depicted as percentage of the injected dose per gram tissue (% ID/g).
(§2) The in vivo characteristics were investigated in male BALB/c nude mice using orthotopically transplanted PC346C cells. These mice were analysed in various ways, i.e., in vivo nuclear imaging (SPECT) in tumour-bearing mice, in vivo optical imaging (fluorescence imaging) in tumour-bearing mice, ex vivo biodistribution (percentage injected dose per gram (% ID/g)) in healthy and tumour-bearing mice and ex vivo fluorescence imaging.

[2] = Stability in serum at 37° C., absorbance and fluorescence after 24 h; format: in vitro ADME; details: for Serum stability after 24 h, remaining absorbance / Serum stability after 24 h, remaining fluorescence: n = 2
Experimental: Not only serum binding, but also the stability in serum is valuable. This characteristic is another brick in the wall for the preclinical evaluation of hybrid tracers since this indicates a compound's in vivo stability. Clearly, any compound degrading in an in vivo environment is not suited for clinical use. All hybrid tracers were incubated in serum at 37° C. and their absorbance and fluorescence were measured after 24 h.

[3] = test system: orthotopically transplanted PC346C cells; experiment: Ex vivo biodistribution in tumour-bearing mice; details: for Tumour-to-fat ratio (T/F): FIG. 5D; for Hepatic clearance: FIG. 5C, in %ID/g
Experimental: as §1
FIG. 5 illustrates biodistribution parameters and tumour uptake for exemplary hybrid tracers. Overview of A) the % Injected activity found in all excised organs percentage of the injected activity that remained at 2 h post tracer injection (all ns), B) the amount of radioactivity still present in the blood pool and C) no significant differences in hepatic clearance between the compounds. To highlight the visibility of the tumour over background tissue notorious for occluding signal within the area of the prostate, the D) tumour-to-fat and E) the tumour-to-blood ratio are provided for the individual hybrid tracers. Significance portrayed as: nothing (non-significant) *(p≤0.05) **(p≤0.01) ***(p≤0.001).
as §2

[4] = Photophysical properties of Cy5 dyes and hybrid tracers in PBS; format: physicochemical; details: for Brightness: determined using the ε of the hybrid tracer's corresponding fluorophore
Experimental: The brightness of a dye—one of the most important photophysical characteristics in a clinical setting—is the product of its molar extinction coefficient (e) and quantum yield (ϕF). We therefore set out to determine the e of each fluorophore by creating a linear concentration range (7.5-0.25 μM) in PBS and measuring the corresponding absorbance (Table 1). The addition of a sulfonate on the carboxylic-acid-containing indoline moiety diminishes the epsilon and the use of extra aryl moieties on the cyanine backbone greatly diminishes the dyes' solvability and thus their epsilon is greatly diminished as well.
The ϕF of a fluorophore is the relation between the number of photons emitted divided by the number of photons absorbed by a single molecule. It is therefore also called the emission efficiency. […] Perhaps an asymmetrical cyanine core, with its significant electron density imbalance, is an inefficient fluorophore. In line with our expectations-since the benzo[e]indole caused J-aggregate formation, the ϕF of benzo[e]indole-containing fluorophores were diminished. […] The only trend derived from the abovementioned data is that the free fluorophore benefits (when optimising emission efficiency) from symmetrical substituents on the cyanine structure.
As the brightness of a fluorophore (or hybrid tracer) is one of its most important photophysical traits, we calculated the brightness for all fluorophores. In order to give insight in the hybrid tracer's optical performance, the brightness was determined by using the ε of its corresponding fluorophore in PBS. […] EuK(SO3)-Cy5-MAS3 thus contains the most favourable photophysical characteristics out of these 6 exemplary hybrid tracers.

serum albumin = serum albumin (Homo sapiens, UniProt P02768); experiment: Plasma protein binding (serum binding); format: in vitro ADME; details: for Plasma protein binding (PPB): FIG. 2A; for fraction unbound: serum albumin, n = 3 (Table 3)
serum albumin, sequence (P02768 25-609): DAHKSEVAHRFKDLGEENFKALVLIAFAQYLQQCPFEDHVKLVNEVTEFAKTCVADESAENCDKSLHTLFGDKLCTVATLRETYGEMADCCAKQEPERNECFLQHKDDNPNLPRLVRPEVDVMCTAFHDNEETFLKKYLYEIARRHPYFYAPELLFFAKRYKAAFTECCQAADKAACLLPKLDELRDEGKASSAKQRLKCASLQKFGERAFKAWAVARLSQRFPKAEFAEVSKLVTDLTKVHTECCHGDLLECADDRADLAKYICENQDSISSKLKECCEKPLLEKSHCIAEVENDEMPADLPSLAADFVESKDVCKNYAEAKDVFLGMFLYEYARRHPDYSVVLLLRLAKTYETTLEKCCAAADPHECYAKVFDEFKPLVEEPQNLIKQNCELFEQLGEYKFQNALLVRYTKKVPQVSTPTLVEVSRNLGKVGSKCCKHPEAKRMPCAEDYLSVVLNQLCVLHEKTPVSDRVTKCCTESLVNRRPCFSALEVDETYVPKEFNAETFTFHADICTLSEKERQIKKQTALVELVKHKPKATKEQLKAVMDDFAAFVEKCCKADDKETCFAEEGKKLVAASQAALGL
Excerpt: FIG. 2 illustrates the results for plasma protein interaction assays for exemplary hybrid tracer compounds. A) Plasma protein binding as a percentage of the indicated hybrid tracers bound to serum albumin. All hybrid tracers portray significant differences (p<0.05) except when noted (ns).
Serum binding, or rather plasma protein binding (PPB) is a useful pharmacokinetic characteristic for the initial assessment of tracer candidates prior to in vivo use as PPB is directly related to, e.g., blood retention and clearance rates. All hybrid tracers have PPB with values between 52-89% with an average of 76±12% (FIG. 2A). The benzo[e]indole-containing hybrid tracers (EuK(Ar)-Cy5-MAS3, EuK-Cy5-(Ar)MAS3 and EuK(Ar)Cy5-(Ar)MAS3) tend to have the highest PPB. […] This can be explained by Sudlow's site, a binding pocket in albumin's subdomain IIA, which binds bulky heterocyclic anions. No clear correlation could be found between c log D and serum binding. Even though PPB has a relation to the lipophilicity, it was expected that we could not predict the PPB based on the c log D as the PPB cannot be explained by a single physiochemical characteristic.

[5] = Lipophilicity logP(o/w) of 99mTc-labeled hybrid tracers; format: physicochemical; details: octanol/water, n = 6
PSMA [6] = molecular target: T1, PSMA (Homo sapiens, UniProt Q04609); experiment: Competitive binding assay, LNCaP cells, EuK[125I]I-BA radioligand; details: for IC50: human LNCaP cells, EuK[125I]I-BA competitive radioligand, n ≥ 3, read-out: IC50 (PSMA affinity)
T1 construct: endogenous in cells; host or cells: LNCaP cells
T1 sequence (Q04609 whole entry): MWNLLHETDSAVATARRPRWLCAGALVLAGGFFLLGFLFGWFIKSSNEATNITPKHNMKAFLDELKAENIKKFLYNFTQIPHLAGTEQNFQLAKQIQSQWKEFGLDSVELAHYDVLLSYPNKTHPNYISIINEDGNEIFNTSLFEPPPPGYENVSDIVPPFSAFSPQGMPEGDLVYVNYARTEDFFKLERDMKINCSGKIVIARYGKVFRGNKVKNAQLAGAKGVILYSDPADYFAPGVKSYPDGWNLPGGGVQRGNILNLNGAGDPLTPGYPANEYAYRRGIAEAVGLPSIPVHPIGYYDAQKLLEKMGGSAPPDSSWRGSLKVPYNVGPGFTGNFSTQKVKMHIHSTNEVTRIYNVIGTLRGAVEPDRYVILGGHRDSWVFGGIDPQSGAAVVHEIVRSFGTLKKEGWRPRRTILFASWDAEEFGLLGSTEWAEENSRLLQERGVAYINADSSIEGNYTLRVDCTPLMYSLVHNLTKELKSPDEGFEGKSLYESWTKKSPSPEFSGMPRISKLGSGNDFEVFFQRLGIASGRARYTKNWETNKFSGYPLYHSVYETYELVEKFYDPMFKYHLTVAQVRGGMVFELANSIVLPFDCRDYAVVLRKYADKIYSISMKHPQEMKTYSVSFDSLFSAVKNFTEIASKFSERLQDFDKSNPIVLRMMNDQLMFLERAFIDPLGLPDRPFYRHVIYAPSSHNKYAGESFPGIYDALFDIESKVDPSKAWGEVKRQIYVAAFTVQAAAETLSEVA
Experimental: (§3) Fluoresence confocal microscopy was utilised as a tool for receptor localisation. As depicted in FIG. 3, a typical PSMA-targeting tracer brightly stains the extracellular receptor. IC50 was determined in a competitive binding assay using human LNCaP cells and EuK[^125I]I-BA as competitive radioligand.

PSMA [7] = molecular target: T1, PSMA; experiment: Fluorescence confocal microscopy of LNCaP cells; format: cell-based; details: FIG. 3
Experimental: A) provides a brightfield image of incubated cells. B) provides an overlay of confocal images of incubated cells with Cy5-related signal of the PSMA-targeting tracer in red, the nucleus in blue and lysosomes in the cytoplasm in green. C) provides an overlay of the confocal and brightfield images.
as §3

| SMILES | Nuclear (SPECT) imaging of the tumour [1] | Serum stability after 24 h, remaining absorbance [2] [% remaining] | Serum stability after 24 h, remaining fluorescence [2] [% remaining] | Tumour-to-fat ratio (T/F) [3] | Stokes shift [4] [nm] | ΦF (quantum yield) [4] [%] | λem [4] [nm] | λex [4] [nm] | Brightness [4] | Plasma protein binding (PPB) (serum albumin) | fraction unbound (serum albumin) | logP [5] | IC50 (PSMA [6]) | Blood retention ([3]; 2 h post injection, FIG. 5B) [ID/g] | Hepatic clearance [3] | Kidney accumulation ([3]; biodistribution 2 h post injection) [ID/g] | Serum stability (comparison between tracers) ([2]; p<0.05) | Tumour-to-blood ratio (T/B) ([3]; FIG. 5E) | Staining of LNCaP cells (confocal) (PSMA [7]) | PSMA affinity relative to EuK-Cy5(SO3)-MAS3 (PSMA [6]; ratio of affinities) |
| --- | --- | --- | --- | --- | --- | --- | --- | --- | --- | --- | --- | --- | --- | --- | --- | --- | --- | --- | --- | --- |
| CC(=O)SCC(=O)NC(CO)C(=O)NC(CO)C(=O)NC(CO)C(=O)NCCCCCC(=O)NCCCCN1C(=CC=CC=CC2=[N+](CCCCCC(=O)NCCCCC(NC(=O)NC(CCC(=O)O)C(=O)O)C(=O)O)c3ccccc3C2(C)C)C(C)(C)c2cc(S(=O)(=O)[O-])ccc21 (stereo not shown) [EuK-Cy5-(SO3)MAS3] | clear nuclear imaging of the tumour | 82 ± 7 | 85 ± 1 | 2658±659 | 16 | 7 | 664 | 648 | 10^‡ 10^3 M^−1 · cm^−1 | significantly higher than the PPB of EuK-Cy5-MAS3 | 0.126 | -2.7 ± 0.01 | 119 ± 117 nM | – | – | – | – | – | – | – |
| CC(=O)SCC(=O)NC(CO)C(=O)NC(CO)C(=O)NC(CO)C(=O)NCCCCCC(=O)NCCCCN1C(=CC=CC=CC2=[N+](CCCCCC(=O)NCCCCC(NC(=O)NC(CCC(=O)O)C(=O)O)C(=O)O)c3ccc4ccccc4c3C2(C)C)C(C)(C)c2ccccc21 (stereo not shown) [EuK(Ar)-Cy5-MAS3] | – | 85 ± 3 | 79 ± 1 | – | 18 | 9 | 682 | 664 | 3^‡ 10^3 M^−1 · cm^−1 | highest PPB | 0.093 | -1.75 ± 0.1 | 113 ± 35.9 nM | 6.91±1.08 | 0.94±0.13 and 1.10±0.14 | – | – | – | – | – |
| CC(=O)SCC(=O)NC(CO)C(=O)NC(CO)C(=O)NC(CO)C(=O)NCCCCCC(=O)NCCCCN1C(=CC=CC=CC2=[N+](CCCCCC(=O)NCCCCC(NC(=O)NC(CCC(=O)O)C(=O)O)C(=O)O)c3ccccc3C2(C)C)C(C)(C)c2ccccc21 (stereo not shown) [EuK-Cy5-MAS3] | – | 80 ± 6 | 86 ± 5 | 2542±287 | 18 | 16 | 663 | 644 | – | – | 0.117 | -2.13 ± 0.1 | 175 ± 61.6 nM | – | 19.93±13.44 | – | – | – | – | – |
| O=C(O)CC[C@H](NC(=O)N[C@@H](CCCCNC(=O)CCCCCCC(=O)NCCCC[C@@H](NC(=O)[C@@H](Cc1ccc2ccccc2c1)NC(=O)[C@@H](Cc1ccc(O)cc1)NC(=O)[C@@H](CO)NC(=O)[C@@H](CO)NC(=O)[C@@H](CO)NC(=O)CS)C(=O)O)C(=O)O)C(=O)O [PSMA I&S, reference compound] (Mercaptoacetyl-[dS][dS][dS][dY][d2Nal][dK](X1)-OH) | – | – | – | – | – | – | – | – | – | – | – | – | – | – | – | 186.0±23.0 | – | – | – | – |
| CC(=O)SCC(=O)NC(CO)C(=O)NC(CO)C(=O)NC(CO)C(=O)NCCCCCC(=O)NCCCCN1C(=CC=CC=CC2=[N+](CCCCCC(=O)NCCCCC(NC(=O)NC(CCC(=O)O)C(=O)O)C(=O)O)c3ccccc3C2(C)C)C(C)(C)c2c1ccc1ccccc21 (stereo not shown) [EuK-Cy5-(Ar)MAS3] | – | 75 ± 0 | 76 ± 0 | – | 17 | 9 | 680 | 663 | 5^‡ 10^3 M^−1 · cm^−1 | highest PPB | 0.11 | -1.84 ± 0.06 | 164 ± 76.9 nM | – | – | – | – | – | – | – |
| CC(=O)SCC(=O)NC(CO)C(=O)NC(CO)C(=O)NC(CO)C(=O)NCCCCCC(=O)NCCCCN1C(=CC=CC=CC2=[N+](CCCCCC(=O)NCCCCC(NC(=O)NC(CCC(=O)O)C(=O)O)C(=O)O)c3ccc4ccccc4c3C2(C)C)C(C)(C)c2c1ccc1ccccc21 (stereo not shown) [EuK(Ar)-Cy5-(Ar)MAS3] | clear nuclear imaging of the tumour | – | – | – | 18 | 14 | 700 | 682 | 7^‡ 10^3 M^−1 · cm^−1 | highest PPB | – | – | 345 nM | – | 0.87±0.66 | – | significantly lower serum stability | – | – | – |
| CC(=O)SCC(=O)NC(CO)C(=O)NC(CO)C(=O)NC(CO)C(=O)NCCCCCC(=O)NCCCCN1C(=CC=CC=CC2=[N+](CCCCCC(=O)NCCCCC(NC(=O)NC(CCC(=O)O)C(=O)O)C(=O)O)c3ccc(S(=O)(=O)[O-])cc3C2(C)C)C(C)(C)c2ccccc21 (stereo not shown) [EuK(SO3)-Cy5-MAS3] | clear nuclear imaging of the tumour | 97 ± 2 | 89 ± 6 | – | 16 | – | 664 | 648 | – | significantly higher than the PPB of EuK-Cy5-MAS3 | 0.15 | -2.86 ± 0.05 | 19 nM and 19.2 nM | – | 2.90±2.06 | – | – | 1713 | PSMA-related staining of LNCaP cells | more than 9 fold |
